Measured values from article PMC11478212, “Antitumoral and Antiproliferative Potential of Synthetic Derivatives of Scorpion Peptide IsCT1 in an Oral Cavity Squamous Carcinoma Model” (Molecules, 2024).

Columns and labels:
normal FN1 cells [1] = experiment: Mitochondrial membrane electrical potential (ΔΨm) by flow cytometry; format: cell-based, human; conditions: 24 h, IsCT-P and AC-AFPK-IsCT1 at IC50, others 100 µM, MitoRed, compared to control cells, mean ± SD of three independent experiments
Procedure: Figure 4 Analysis of mitochondrial electrical potential (ΔΨm) using flow cytometry following a 24 h treatment with synthetic analogs of IsCT1 peptides. The indicated cells were treated at the IC50 values obtained for the IsCT-P and AC-AFPK-IsCT1 peptides and at a concentration of 100 µM for the other peptides. (a) Representative histograms of cell distribution according to ΔΨm; (b) bar graph showing ΔΨm expressed as the mean ± SD of three independent experiments of SCC-9 tumor cells; (c) bar graph showing ΔΨm expressed as the mean ± SD of three independent experiments of SCC-25 tumor cells; (d) bar graph showing ΔΨm expressed as the mean ± SD of three independent experiments of normal FN1 cells; (e) bar graph showing ΔΨm expressed as the mean ± SD of three independent experiments of normal J774 cells. Statistical differences were obtained using ANOVA and Tukey–Kramer multiple comparison tests. * p < 0.05, ** p < 0.01, and *** p < 0.001 denote significance. ns = not significant.
Tumor (SSC-9 and SSC-25) and normal cells (FN1 and J-774) were subjected to treatment for a period of 24 h at the peptides’ IC50 concentrations. After treatment, the cells were trypsinized, centrifuged at 1200 rpm for 5 min, the supernatant was discarded, and the cells were resuspended in complete medium containing MitoRed™ (Sigma-Aldrich, USA) (200 nM/L). […]

SCC-25 tumor cells = experiment: Cellular marker expression by flow cytometry; format: cell-based
Procedure: (§1) Figure 6 Analysis of marker expression in tongue squamous cell carcinoma tumor cells. The expression of markers was quantified using flow cytometry after 24 h of treatment with the AC-AFPK-IsCT1 peptide at its IC50 value determined for each cell line. (a) Representative density plots display the distribution of cells with fluorescence intensity; (b) marker expression in SCC-9 tumor cells; (c) marker expression in SCC-25 tumor cells. Bar graphs present protein expression levels as the mean ± SD from three independent experiments. Values are expressed as the mean ± SD from three independent experiments. Statistical differences were determined using ANOVA and Tukey–Kramer multiple comparison tests. * p < 0.05 and *** p < 0.001 denote significance. ns = not significant.
(§2) Tumor cells SSC-9 and SSC-25, both treated with the peptides at their IC50 concentrations for 24 h and control groups (10^5 cells/mL), were incubated at 4 °C for 1 h with 1 μg of specific antibodies conjugated with Alexa Fluor™ 488. Various markers associated with cell death and cell cycle progression, such as caspase 3 and 8, cyclin D1, PCNA, p53, and TNF-α conjugated with Alexa Fluor™ 488, were used as indicated. For intracellular markers, TritonX 0.1% was used for 30 min at room temperature before antibody labeling. Following centrifugation at 1500 rpm and washing with PBS, the supernatant was discarded and the pellet was resuspended in 200 μL of FACS buffer. The reading and analysis of receptor expression on the cell surface of tumor cells were carried out using a FACScanto flow cytometer (BD) with fluorescence intensity FL1-H for the number of events (10,000 events), and the dot plots were acquired and analyzed using FCS Express software.

SCC-9 tumor cells = experiment: Cellular marker expression by flow cytometry; format: cell-based
Procedure: as §1, §2

normal FN1 cells [2] = experiment: CFSE-DA proliferation assay (flow cytometry); format: cell-based, human; conditions: 24 h, IsCT-P and AC-AFPK-IsCT1 at IC50, other peptides at 100 µM, mean ± SD of three independent experiments
Procedure: Figure 2 Assessment of the cellular proliferative index was conducted using flow cytometry following a 24 h treatment with synthetic analogs of the IsCT1 peptide. The treatments were performed using the IC50 values obtained for the IsCT-P and AC-AFPK-IsCT1 peptides and at a concentration of 100 µM for the other peptides. (a) Representative histograms of the proliferative index were analyzed using WinMDI 5.0 software. Each color in the histogram represents a new cell population. (b) Bar graphs represent the mean ± SD of the proliferative index for SCC-9 tumor cells derived from three independent experiments. (c) Bar graphs display the mean ± SD of the proliferative index for SCC-25 tumor cells based on three independent experiments. (d) Bar graphs represent the mean ± SD of the proliferative index for normal FN1 cells from three independent experiments. […] Statistical differences were determined using ANOVA and Tukey–Kramer multiple comparison tests. […]
Tumor (SSC-9 and SSC-25) and normal cells (FN1 and J-774) were plated in 24-well plates at a density of 10^5 cells/mL for 24 h. […] Readings were performed on a FACScanto flow cytometer (BD, Franklin Lakes, NJ, USA) with the number of events set to 10,000 events, and histograms were acquired and analyzed using ModFit LT 5.0 software.

[3] = 24 h at IC50, compared to control cells, mean ± SD of three independent experiments
[4] = 24 h at IC50, mean ± SD of three independent experiments

Substance	decrease in ΔΨm (normal FN1 cells [1])	decrease in Cyclin D1 expression (SCC-25 tumor cells; [3]) [%]	decrease in PCNA expression (SCC-25 tumor cells; [3]) [%]	increase in TNF-α-expressing cells (SCC-25 tumor cells; [4]) [%]	increase in caspase 3 expression (SCC-25 tumor cells; [4]) [%]	increase in caspase 8 expression (SCC-25 tumor cells; [4]) [%]	increase in p53-expressing cells (SCC-25 tumor cells; [4]) [%]	change in Cyclin-D1 expression (SCC-9 tumor cells; 24 h at IC50)	increase in caspase 3 expression (SCC-9 tumor cells; [3]) [%]	increase in caspase 8 expression (SCC-9 tumor cells; [3]) [%]	increase in cells expressing TNF-α (SCC-9 tumor cells; [3]) [%]	increase in cells expressing p53 (SCC-9 tumor cells; [3]) [%]	reduction in PCNA expression (SCC-9 tumor cells; [3]) [%]	reduction in the proliferative index (normal FN1 cells [2]) [%]
Ac-ALGKFWPKIKSLF-NH2 [AC-AFPK-IsCT1]	No changes	15 ± 1.3	22.8 ± 2.5	85.6 ± 8.4	86.2 ± 7	82.3 ± 5.5	83.5 ± 1.8	No significant changes	67 ± 4.9	61.6 ± 3	69.2 ± 2.6	60.7 ± 1.6	21.4 ± 0.4	
H-ILKKIWKPIKKLF-NH2 [IsCT-P]														37.6 ± 3.9
